Assays:
NK1 receptor = NK1 receptor (Meriones unguiculatus (Mongolian jird) (Gerbillus unguiculatus), UniProt Q5DUB1); assay: Effect on GR73632-induced foot-tapping; type: in vivo; conditions: 0.3 mg/kg from the jugular vein, GR73632 after four hours, male gerbil
Procedure: (1) Effect on Foot-tapping
(§1) A male gerbil (Japan SLC) was anesthetized with isoflurane, and 0.3 mg/kg of a test compound was administered from the jugular vein. After four hours, GR73632 (5 pmol/5 μl), which is an NK1 receptor agonist, was administered into the cerebral ventricle at the part 1 mm lateral to and 4.5 mm below the bregma in the head, under anesthesia with isoflurane. After the administration, the gerbil was moved to an observation cage, and the foot-tapping period during five minutes after the recovery of the righting reflex was measured. The foot-tapping inhibition rate (%) of each test compound was calculated by the following equation. Foot-tapping inhibition rate (%)={1−(Foot-tapping period when test compound was administered)/(Foot-tapping period when solvent was administered)}×100 (2) Measurement of Drug Concentrations
(§2) In the table, Ex. No. means the Example number. Inhibition (%) is the foot-tapping inhibition rate, and Conc. (nM) is the drug concentration in the brain.

[1] = Ferret pharmacokinetic test; type: in vivo; conditions: plasma, male ferret
Procedure: Ferret Pharmacokinetic Test
The test compound solution was prepared by dissolving the test compound in a vehicle (50% N,N-dimethylformamide (Wako Pure Chemical Industries), 30% propylene glycol (Wako Pure Chemical Industries) and 4% 2-hydroxypropyl-β-cyclodextrin (Wako Pure Chemical Industries)). Under anesthesia with isoflurane 0.3 mg/kg of the test compound was intravenously administered to a male ferret (Marshall BioResources Japan) from the jugular vein. In the case of oral administration, 1 mg/kg of the test compound was orally administered to an awake animal. After the administration of the test compound, blood samples were taken sequentially from the brachial cephalic vein, and the concentrations of the test compound in the plasma were measured by a quantitative analysis using liquid chromatography-mass spectrometry (LC/MS).
In the tables, Ex. No. means the Example number. CLtot and Vss are the total body clearance and the steady-state volume of distribution, based on the plasma concentrations in the case of intravenous administration, respectively, Cmax, AUC and BA are the maximum plasma test compound concentration, the area under the plasma test compound concentration-time curve and the bioavailability, in the case of oral administration, respectively, […]

CYP3A4 = CYP3A4 (Homo sapiens (Human), UniProt P08684); assay: Inhibitory effect on CYP3A4 (Luciferin-IPA); conditions: read-out: IC50 (CYP3A4 inhibition); 30-minute pre-incubation group
Chain of CYP3A4 (P08684 whole entry): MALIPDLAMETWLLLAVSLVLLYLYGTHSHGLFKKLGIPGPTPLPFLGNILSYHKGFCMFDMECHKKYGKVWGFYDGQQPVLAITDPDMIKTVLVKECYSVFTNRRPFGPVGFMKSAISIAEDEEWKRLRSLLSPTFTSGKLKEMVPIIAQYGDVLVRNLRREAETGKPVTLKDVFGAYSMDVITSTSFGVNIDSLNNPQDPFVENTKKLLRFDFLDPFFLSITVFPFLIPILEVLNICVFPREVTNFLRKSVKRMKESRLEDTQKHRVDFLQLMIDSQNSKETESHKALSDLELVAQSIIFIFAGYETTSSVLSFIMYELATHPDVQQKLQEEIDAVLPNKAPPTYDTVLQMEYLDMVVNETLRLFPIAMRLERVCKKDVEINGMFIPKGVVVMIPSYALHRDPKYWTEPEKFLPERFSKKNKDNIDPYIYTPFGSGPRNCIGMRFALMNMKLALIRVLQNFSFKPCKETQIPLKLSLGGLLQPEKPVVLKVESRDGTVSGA
Procedure: Enzyme reaction was performed by incubating in a potassium phosphate buffer solution (pH 7.4) containing 1 nM to 20 μM test compound, 3.2 mM magnesium chloride, 0.2 pmol human CYP3A4 (BD Biosciences), 0.5 mM reduced nicotinamide adenine dinucleotide phosphate (NADPH) and 3 μM Luciferin-IPA (Promega) at 37° C. for 10 minutes. The volume of the reaction solution was 50 μL/well. The 30-minute pre-incubation group was incubated at 37° C. for 30 minutes before adding the substrate, the Luciferin-IPA solution (12.5 μL/well). At the end of the enzyme reaction, 50 μL/well of a Luciferin detection reagent (Promega) was added to the wells, and the plate was left at room temperature for 20 minutes. Then, the emission intensities were measured with Infinite M1000 (TECAN). The enzyme activities (%) relative to the value of the group to which the test compound was not added were calculated.

hERG channel = hERG channel (Homo sapiens (Human), UniProt Q12809); assay: Evaluation of hERG current (whole-cell patch clamp); type: cell-based; conditions: 10 μM, application for 10 minutes, n = 3, average ± standard error
Chain of hERG channel (Q12809 whole entry): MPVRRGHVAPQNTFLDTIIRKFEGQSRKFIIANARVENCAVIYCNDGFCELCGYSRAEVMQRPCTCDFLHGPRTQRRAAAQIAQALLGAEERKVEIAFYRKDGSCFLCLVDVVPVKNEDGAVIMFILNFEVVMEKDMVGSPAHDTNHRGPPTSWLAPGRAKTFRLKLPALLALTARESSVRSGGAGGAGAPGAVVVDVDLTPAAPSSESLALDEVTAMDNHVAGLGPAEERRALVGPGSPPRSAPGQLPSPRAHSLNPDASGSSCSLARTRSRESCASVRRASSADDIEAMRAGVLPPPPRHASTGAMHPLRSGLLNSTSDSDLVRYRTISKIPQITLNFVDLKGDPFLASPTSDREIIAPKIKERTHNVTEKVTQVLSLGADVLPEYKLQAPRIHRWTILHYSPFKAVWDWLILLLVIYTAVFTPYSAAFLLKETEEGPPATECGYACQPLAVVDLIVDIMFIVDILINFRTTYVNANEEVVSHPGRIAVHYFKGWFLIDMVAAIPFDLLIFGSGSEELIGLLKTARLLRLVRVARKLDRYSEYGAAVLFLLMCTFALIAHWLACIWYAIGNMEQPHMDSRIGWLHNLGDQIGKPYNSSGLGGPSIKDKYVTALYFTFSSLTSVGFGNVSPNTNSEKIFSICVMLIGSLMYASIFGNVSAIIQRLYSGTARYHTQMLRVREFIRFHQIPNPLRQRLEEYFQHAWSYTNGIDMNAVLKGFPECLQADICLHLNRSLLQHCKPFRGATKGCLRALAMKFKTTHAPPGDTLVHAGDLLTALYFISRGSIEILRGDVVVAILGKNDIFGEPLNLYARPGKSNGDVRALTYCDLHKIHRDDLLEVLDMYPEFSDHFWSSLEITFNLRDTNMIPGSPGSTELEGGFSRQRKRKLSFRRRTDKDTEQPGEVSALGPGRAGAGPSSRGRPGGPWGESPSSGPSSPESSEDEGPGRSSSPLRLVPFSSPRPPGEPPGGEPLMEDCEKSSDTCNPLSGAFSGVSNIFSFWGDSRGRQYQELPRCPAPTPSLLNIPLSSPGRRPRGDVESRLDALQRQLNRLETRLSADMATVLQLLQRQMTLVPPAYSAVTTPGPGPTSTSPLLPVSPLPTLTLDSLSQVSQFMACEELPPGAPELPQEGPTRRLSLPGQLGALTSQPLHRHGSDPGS
Procedure: Evaluation of hERG Current
The hERG current was measured by a whole-cell method using a patch clamp system, where a cover glass on which hERG channel-expressing human embryonic kidney (HEK) 293 cells were seeded was placed on a perfusion bath and a perfusion solution was caused to flow. The change in the hERG channel-derived current caused by a pulse protocol (holding potential of −80 mV, depolarization pulse of +20 mV for 1.9 seconds, repolarization pulse of −50 mV for 2 seconds, stimulated at intervals of 15 seconds) of data acquisition/analysis software, pCLAMP9 (Axon Instruments, Inc.), was measured. The measurement conditions were a flow rate of about 1.5 mL/min and a temperature of about 33° C. Two wave forms just before applying the test compound and two wave forms immediately after the application for 10 minutes were analyzed, and the statistical analysis was performed. The value before the application of the test compound was regarded as 100%, and the change rate based on the value was determined.
In the table. Ex. No. means the Example number, and the value is the average±the standard error.

[2] = Measurement of drug concentrations in the brain after foot-tapping test; type: in vivo; conditions: male; 0.3 mg/kg iv, after foot-tapping was finished, gerbil brain; read-out: Conc. (drug concentration in the brain)
Procedure: as §1
After foot-tapping was finished, laparotomy was performed immediately under anesthesia with ether, and a blood sample was taken from the abdominal vena cava. At the same time, the brain was extracted. Through a quantitative analysis using liquid chromatography-mass spectrometry (LC/MS), the concentrations of the test compound in the plasma and the brain were measured.
as §2

[3] = system: cisplatin-induced acute and delayed emetic response; assay: Effect on cisplatin-induced acute and delayed emetic response; type: in vivo, ferret
Procedure: No 1, 1 mg/kg, po) in the acute phase, and a value of control group, the group intravenously administered with 3 mg/kg of the compound of Example 1 (Ex. […] No 1, 1 mg/kg, po) in the delayed phase from the left respectively. The vertical axes show the number of retching and vomiting ([…]) (the mean+standard error of 5 examples of control group, the mean+standard error of 5 examples of the group intravenously administered, and the mean+standard error of 5 examples of the group orally administered). Effect on Cisplatin-induced Acute and Delayed Emetic Response The test compound solution was prepared by dissolving the test compound in a vehicle (a mixture of 50% N,N-dimethylformamide (Wako Pure Chemical Industries), 30% propylene glycol (Wako Pure Chemical Industries) and 4% 2-hydroxypropyl-β-cyclodextrin (Wako Pure Chemical Industries)). The vehicle only was administered to the control group. Under anesthesia with isoflurane, 3 mg/kg of the test compound was intravenously administered to a male ferret (Marshall BioResources Japan) from the jugular vein. Cisplatin, which was heated to 40-50° C., was intraperitoneally administered at 5 mg/kg one hour after the drug administration. […] The solvent only was administered to the control group. The test compound was orally administered to a male ferret (Marshall BioResources Japan). The oral administration was performed every 24 hours at 1 mg/kg three times in total. Cisplatin, which was heated to 40-50° C., was intraperitoneally administered at 5 mg/kg one hour after the first oral administration of the test compound.

Chain of NK1 receptor (Q5DUB1 whole entry): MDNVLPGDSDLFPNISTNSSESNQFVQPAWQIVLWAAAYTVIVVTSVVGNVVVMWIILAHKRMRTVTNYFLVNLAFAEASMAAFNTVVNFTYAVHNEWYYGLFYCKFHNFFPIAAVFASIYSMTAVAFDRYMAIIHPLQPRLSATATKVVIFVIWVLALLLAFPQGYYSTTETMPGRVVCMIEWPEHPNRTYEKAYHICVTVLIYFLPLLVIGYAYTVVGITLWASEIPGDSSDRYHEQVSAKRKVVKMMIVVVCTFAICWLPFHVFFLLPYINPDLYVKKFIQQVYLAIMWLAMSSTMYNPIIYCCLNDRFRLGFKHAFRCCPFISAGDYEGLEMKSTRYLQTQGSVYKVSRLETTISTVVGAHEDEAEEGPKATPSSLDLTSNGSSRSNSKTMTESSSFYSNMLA

Cc1cc(F)ccc1-c1cc(N2CCC(CC(=O)O)CC2)ncc1N(C)C(=O)C(C)(C)c1cc(C(F)(F)F)cc(C(F)(F)F)c1 [Example 1]
Inhibition (foot-tapping inhibition rate) (NK1 receptor): 100% | clearance ([1]; 0.3 mg/kg intravenous, read-out: CLtot (total body clearance)): 0.75 mL/min/kg | Vd ([1]; 0.3 mg/kg intravenous, read-out: Vss (steady-state volume of distribution)): 0.336 L/kg | bioavailability ([1]; 1 mg/kg oral, read-out: BA (bioavailability)): 61% | Cmax ([1]; 1 mg/kg oral, read-out: Cmax (maximum plasma test compound concentration)): 1270 ng/mL | IC50 (CYP3A4): 6.2 µM | hERG current, % of value before application (hERG channel): 93.9 ± 2.7% | concentration at 4 h [2]: 275 nM | number of retching and vomiting ([3]; 1 mg/kg po every 24 hours three times, acute phase (up to 24 hours after cisplatin)): inhibition of the number of retching and vomiting was observed | number of retching and vomiting ([3]; 1 mg/kg po every 24 hours three times, delayed phase (24 to 72 hours after cisplatin)): inhibition of the number of retching and vomiting was observed | number of retching and vomiting ([3]; 3 mg/kg iv, acute phase (up to 24 hours after cisplatin)): inhibition of the number of retching and vomiting was observed | number of retching and vomiting ([3]; 3 mg/kg iv, delayed phase (24 to 72 hours after cisplatin)): inhibition of the number of retching and vomiting was observed
